System: sfGFP^151(AXC)
Experiment: In vivo translation screen of XTPs/YTPs: protein shift (AzK incorporation) by DBCO-TAMRA western blot
Assay type: cell-based, E. coli
Conditions: TPT3TP 30 μM, dCNMO-dTPT3 UBP, strain ML2
Procedure: In vivo Translation Screen of XTPs/YTPs. An overnight culture of the SSO strain ML2 carrying the pGEX-MbPylRS TetR plasmid was grown in 2×YT supplemented with 50 mM potassium phosphate, […] chloramphenicol and 100 μg/mL carbenicillin (herein referred to in this section as “media”), then diluted back to an OD600 of 0.03 in the same media and grown to an OD600 of 0.4 to 0.6. The culture was then chilled with shaking over ice-water for 15 minutes then pelleted by centrifugation at 3,200×g for 10 min. Cells were then resuspended and washed with ice-cold ddH2O twice then resuspended in ice-cold ddH2O to OD600 of 55-65. The electrocompetent cells (50 μL) and 1 ng of Golden Gate assembled plasmid with the UBP within the sfGFP and tRNAPyl genes (see Golden Gate Assembly of Plasmids) were transferred to a pre-chilled electroporation cuvette (0.2-cm-gap), then electroporated (Gene Pulser II; Bio-Rad) according to manufacturer's recommendations (voltage […], capacitor 2.5 μF, resistor 200Ω), and then immediately diluted with 950 μL of media. An aliquot (40 μL) of the transformation was then diluted five-fold in media supplemented with dCNMOTP (25 μM) and dTPT3TP (10 μM) for a final volume of 200 μL then allowed to recover for 1 h shaking at 37° C. Two-fold dilutions of the recovery were plated onto solid media supplemented with zeocin (50 μg/mL), dCNMOTP (10 μM), dTPT3TP (10 μM), and agar (2% w/v), then grown at 37° C. for 18 h. Single colonies were picked and grown in media (300 μL) supplemented with 50 μg/mL zeocin and provided dCNMOTP (25 μM) and dTPT3TP (10 μM) (herein afterward referred to in this section as “growth media”). The culture was monitored for cell growth (Envision 2103 Multilabel Plate Reader with a 590/20 nm filter) and then collected at an OD600˜1.0. An aliquot (50 μL) was subjected to plasmid isolation using the ZR Plasmid Prep Kit (Zymo Research). Isolated plasmids were then subjected to the streptavidin gel shift assay described below (using primers P3-4 and P5-6, Table S1) to determine UBP retention.
A colony with excellent UBP retention was then diluted to an OD600˜0.01 in growth media and grown to OD600˜0.4-0.6. This culture was then divided into multiple 300 μL cultures and for the screen of XTP analogs, each was provided with the corresponding XTP (at either 25 μM or 250 μM) or ddH2O for “−XTP” samples, TPT3TP (30 μM), and AzK (10 mM). For the screen of YTP analogs, each 300 μL culture was provided with the corresponding YTP (at either 25 μM or 250 μM) or ddH2O for “−YTP” samples, NaMTP (250 μM), and AzK (10 mM). Samples were shielded from light after addition of AzK to prevent photodegradation. These samples were then grown at 37° C. for 20 min before adding 1 mM IPTG and grown at 37° C. for an additional 1 h to induce T7 RNAP and transcription of tRNAPyl and PylRS. From this point on, cells were monitored for growth and fluorescence. Expression of sfGFP was then induced with anhydrotetracycline (100 ng/mL). After an additional 3 h of growth at 37° C., cells were collected (230 μL for affinity purification of sfGFP), cooled, and then pelleted and stored at −80° C. before protein purification.
Affinity Purification of sfGFP. Cell pellets collected from translation experiments were resuspended in BugBuster (100 μL 1×, EMD Millipore) and shaken at room temperature for 15 min. […]

COc1cc(C)c(F)cc1[C@@H]1O[C@H](COP(=O)(O)OP(=O)(O)OP(=O)(O)O)[C@@H](O)[C@H]1O [Compound 5FMTP]
sfGFP protein gel shift (ncAA incorporation) (XTP 25 μM): 94%
sfGFP protein gel shift (ncAA incorporation) (XTP 250 μM): 98%

From patent US11879145B2, “Reagents and methods for replication, transcription, and translation in semi-synthetic organisms” (The Scripps Research Institute, priority 2019, dated 2024)
